Tests used:
[1] = tested on: a variety of test species; assay: Post-emergence herbicidal activity (glasshouse, sprayed after 8 days cultivation, evaluated after 13 days); type: in vivo; design: key: 5=total damage to plant; 0=no damage to plant; conditions: rate 1000 g/Ha, scale 0-5
Method in brief: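 Damage rating 0 (none) to 5 (total), assessed 13 days after spraying. Plants received the compound in acetone/water 50:50 with 0.5% Tween 20 at 8 days post-sowing, then were kept at 24/16 °C, 14 h photoperiod, 65% RH.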

[2] = tested on: a variety of test species; assay: Pre-emergence herbicidal activity (glasshouse, sprayed one day after sowing, evaluated after 13 days); type: in vivo; design: key: 5=total damage to plant; 0=no damage to plant; conditions: application pre-emergence, rate 1000 g/Ha, scale 0-5
Method in brief: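 Seeds sown in standard soil in pots, held one day in glasshouse (24/16 °C day/night, 14 h light, 65% humidity), then sprayed with aqueous solution of compound formulated in acetone/water 50:50 with 0.5% Tween 20. Grown on under same conditions, watered twice daily; damage scored after 13 days (0 = none, 5 = total).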

| Compound | ABUTH (Abutilon theophrasti) damage score, application post-emergence [1] | ALOMY (Alopecurus myosuroides) damage score, application post-emergence [1] | AMARE (Amaranthus retroflexus) damage score, application post-emergence [1] | ECHCG (Echinochloa crus-galli) damage score, application post-emergence [1] | SETFA (Setaria faberi) damage score, application post-emergence [1] | ZEAMX (Zea mays) damage score, application post-emergence [1] | Pre-emergence herbicidal damage score, ABUTH [2] | Pre-emergence herbicidal damage score, ALOMY [2] | Pre-emergence herbicidal damage score, AMARE [2] | Pre-emergence herbicidal damage score, ECHCG [2] | Pre-emergence herbicidal damage score, SETFA [2] | Pre-emergence herbicidal damage score, ZEAMX [2] |
| --- | --- | --- | --- | --- | --- | --- | --- | --- | --- | --- | --- | --- |
| CC(C)(C)c1cc(N2C(=O)C(Cl)=C(N)C2O)no1 (stereo not drawn) [C6, 3-amino-1-(5-tert-butylisoxazol-3-yl)-4-chloro-2-hydroxy-2H-pyrrol-5-one] | 3 | 5 | 5 | 5 | 5 | 5 | 5 | 4 | 5 | 5 | 4 | 4 |
| CC(C)(C)c1cc(N2C(=O)C(Cl)=C(NC3CCC3)C2O)no1 (stereo not drawn) [C9] | 0 | 0 | 2 | 0 | 0 | 0 | 0 | 0 | 3 | 0 | 0 | 0 |
| CC(C)(C)CNC1=C(Cl)C(=O)N(c2cc(C(C)(C)C)on2)C1O (stereo not drawn) [C10] | 0 | 0 | 0 | 0 | 0 | 0 | 0 | 0 | 2 | 0 | 0 | 0 |
| COCCNC1=C(Cl)C(=O)N(c2cc(C(C)(C)C)on2)C1O (stereo not drawn) [C11] | 5 | 4 | 5 | 5 | 5 | 1 | 4 | 3 | 5 | 4 | 4 | 2 |
| CCOCCNC1=C(Cl)C(=O)N(c2cc(C(C)(C)C)on2)C1O (stereo not drawn) [C12] | 5 | 3 | 4 | 4 | 4 | 0 | 4 | 1 | 4 | 2 | 3 | 0 |
